Assay results reported in PMC12079475, “Identification, validation, and characterization of approved and investigational drugs interfering with the SARS‐CoV‐2 endoribonuclease Nsp15” (Protein Science : A Publication of the Protein Society, 2025).
Like-named read-outs stand apart in the source and are kept apart here.

Tests used:
Nsp15 = Nsp15 (Severe acute respiratory syndrome coronavirus 2, UniProt P0DTD1)
SARS‐CoV‐2 Nsp15 [1] = target: T1, SARS‐CoV‐2 Nsp15 (Severe acute respiratory syndrome coronavirus 2, UniProt P0DTD1); assay: biochemical
SARS‐CoV‐2 Nsp15 [2] = target: T1, SARS‐CoV‐2 Nsp15; assay: biochemical; type: biochemical; details: for Inhibition % +L-Cys 10 µM / inhibition at 10 µM: L-cysteine buffer; for inhibition at 10 µM: read-out: Inhibition % +L-Cys 10 µM; for loss of the inhibition potency in L‐cysteine buffer: 1 mM L‐cysteine buffer compared with DTT buffer
Vero‐E6 cells = details: tested concentration range up to 32 μM; ref Zaliani et al., 2022; cited from earlier work
[3] = test system: SARS‐CoV‐2 in Vero‐E6 cells; set-up: method as in Zaliani et al., 2022; details: ref Zaliani et al., 2022, read-out: EC50 cytopathic (CPE) assay; cited from earlier work
[4] = 1 mM DTT buffer, confidence interval in brackets, read-out: IC50 + DTT (μM) (CI in μM)
[5] = DTT buffer (Table S1), read-out: IC50 +DTT
[6] = hit confirmation, 10 µM, DTT buffer
[7] = primary screen, 10 µM (Table S1)
[8] = primary screen, 10 μM compound, 1 mM DTT buffer, normalized to 50 μM Congo red (100%) and DMSO (0%)
[9] = 1 mM L-cysteine buffer, confidence interval in brackets, read-out: IC50 + L‐Cys (μM) (CI in μM)
[10] = L-cysteine buffer (Table S1), read-out: IC50 +L-Cys
[11] = hit confirmation, 10 µM, DTT buffer, read-out: HC inhibition % +DTT 10 µM
[12] = primary screen, 10 µM (Table S1), read-out: PS Inhibition % 10 µM
[13] = primary screen, 10 μM compound, 1 mM DTT buffer, normalized to 50 μM Congo red (100%) and DMSO (0%), read-out: PS inhibition % 10 μM (single point measurement)

Compound | ΔT m°C nDSF (Nsp15) [°C] | IC50 (SARS‐CoV‐2 Nsp15 [1]; [4]) [µM] | IC50 (SARS‐CoV‐2 Nsp15 [1]; [5]) [µM] | HC inhibition % +DTT 10 µM (SARS‐CoV‐2 Nsp15 [1]; [6]) | PS Inhibition % 10 µM (SARS‐CoV‐2 Nsp15 [1]; [7]) | PS inhibition % 10 μM (single point measurement) (SARS‐CoV‐2 Nsp15 [1]; [8]) [%] | Inhibition % +L-Cys 10 µM (SARS‐CoV‐2 Nsp15 [2]) | IC50 (SARS‐CoV‐2 Nsp15 [2]; [9]) [µM] | IC50 (SARS‐CoV‐2 Nsp15 [2]; [10]) [µM] | inhibition at 10 µM (SARS‐CoV‐2 Nsp15 [1]; [11]) [%] | inhibition at 10 µM (SARS‐CoV‐2 Nsp15 [1]; [12]) [%] | inhibition at 10 µM (SARS‐CoV‐2 Nsp15 [1]; [13]) [%] | inhibition at 10 µM (SARS‐CoV‐2 Nsp15 [2]) [%] | loss of the inhibition potency in L‐cysteine buffer (SARS‐CoV‐2 Nsp15 [2]) | CC50 (Vero‐E6 cells) [nM] | EC50 [3] [nM]
CN[C@H](CC(C)C)C(=O)N[C@H]1C(=O)N[C@@H](CC(N)=O)C(=O)N[C@H]2C(=O)N[C@H]3C(=O)N[C@H](C(=O)N[C@H](C(=O)O)c4cc(O)cc(O)c4-c4cc3ccc4O)[C@H](O[C@H]3C[C@](C)(N)[C@@H](O)[C@H](C)O3)c3ccc(c(Cl)c3)Oc3cc2cc(c3O[C@@H]2O[C@H](CO)[C@@H](O)[C@H](O)[C@H]2O[C@H]2C[C@](C)(NCc3ccc(-c4ccc(Cl)cc4)cc3)[C@@H](O)[C@H](C)O2)Oc2ccc(cc2Cl)[C@H]1O.O=P(O)(O)O.O=P(O)(O)O [Oritavancin (diphosphate)] | 0 | 2.5 | 2.53 | 92,52% | 86,71% | 86.7 | 91,07% | 1.2 | 1.24 | – | – | – | – | – | – | –
NCCNc1ccc(NCCN)c2c1C(=O)c1ccncc1C2=O [Pixantrone (dimaleate)] | – | 5.2 | 5.23 | – | – | – | – | 4.4 | 4.37 | 77.5 | 82.3 | 82.3 | 72.8 | – | – | –
C/C(=N\NC(=N)N)c1cc(NC(=O)CCCCCCCCC(=O)Nc2cc(/C(C)=N/NC(=N)N)cc(/C(C)=N/NC(=N)N)c2)cc(/C(C)=N/NC(=N)N)c1 [Semapimod] | – | 0.6 | 0.61 | 99,81% | 106,91% | 106.9 | 100,99% | 1 | 1.01 | – | – | – | – | – | – | –
CN(C)CCNc1nc2cc(O)ccc2c2c1C(=O)c1ccccc1-2.Cl.Cl [TAS‐103 (dihydrochloride), 6‐[2‐(dimethylamino)ethylamino]‐ 3‐hydroxy‐7H‐indeno[2,1‐C]quinolin‐7‐one dihydrochloride] | 0.6 | 6.6 | 6.55 | – | – | – | – | – | – | 63.6 | 63.4 | 63.4 | -33.9 | more than 50% | – | –
Cc1cc2nc3ccc(N(C)C)cc3[s+]c2cc1N [Tolonium chloride] | – | 1.7 | 1.65 | – | – | – | – | 1.3 | 1.34 | 76.5 | 72 | 72 | 77.8 | – | – | –
COc1cc2c(NC3CCN(C)CC3)nc(N3CCCN(C)CC3)nc2cc1OCCCN(C)C [UNC0224] | – | 2.6 | 2.57 | – | – | – | – | 4 | – | 73.9 | 70.6 | 70.6 | 83.2 | – | – | –
COc1cc2c(NC3CCN(C)CC3)nc(N3CCCN(C)CC3)nc2cc1OCCOCCN(C)C [UNC0321] | – | 3.9 | 3.89 | – | – | – | – | 3.2 | 3.21 | 77.6 | 64 | 63.9 | 72.9 | – | – | –
COc1cc2c(NC3CCN(CC4CCCCC4)CC3)nc(N3CCCN(C(C)C)CC3)nc2cc1OCCCN1CCCCC1 [UNC0631] | – | 2.2 | 2.21 | – | – | – | – | 2.5 | 2.54 | 71.4 | 84.8 | 84.8 | 79.3 | – | – | –
COc1cc2c(NC3CCN(C(C)C)CC3)nc(C3CCCCC3)nc2cc1OCCCN1CCCC1 [UNC0638] | – | 2.8 | 2.84 | – | – | – | – | 4.8 | 4.77 | 69.5 | 56.7 | 56.7 | 69.9 | – | – | –
COc1cc2c(NC3CCN(C(C)C)CC3)nc(N3CCC(F)(F)CC3)nc2cc1OCCCN1CCCC1 [UNC0642] | – | 6.3 | 6.27 | – | – | – | – | 3.3 | 3.27 | 77.5 | 56.9 | 56.9 | 80.2 | – | > 32000 | 16700
CC1(C)CCC2=C(O1)C(=O)c1ccccc1C2=O [alphaLapachone] | – | 2.2 | 2.15 | – | – | – | – | – | – | 82.8 | 76 | 76 | 28.6 | more than 50% | – | –
BVT‐948 | – | 0.4 | 0.41 | 84,54% | 72,99% | 72.9 | -3,98% | – | – | – | – | – | – | more than 50% | – | –
